In ChEMBL document CHEMBL6177977, “Discovery of a Potent, Selective, and Brain-Penetrant Checkpoint Kinase 1 Inhibitor, BEN-28010, for the Treatment of Glioblastoma” (J Med Chem, 2025):
≈ marks a conversion by molar mass, not a printed value.

Key:
[1] = biological target: T1, Serine/threonine-protein kinase Chk1 (Homo sapiens, UniProt O14757); assay: Inhibition of N-terminal GST-fused human full length CHK1 (1 to 476 residues) expressed in baculovirus-infected Sf21 cells using STK1 S1 as substrate preincubated for 30 mins in presence of ATP followed by MgCl2 addition and measured after 60 mins by TR-FRET assay
T1 sequence (O14757 whole entry): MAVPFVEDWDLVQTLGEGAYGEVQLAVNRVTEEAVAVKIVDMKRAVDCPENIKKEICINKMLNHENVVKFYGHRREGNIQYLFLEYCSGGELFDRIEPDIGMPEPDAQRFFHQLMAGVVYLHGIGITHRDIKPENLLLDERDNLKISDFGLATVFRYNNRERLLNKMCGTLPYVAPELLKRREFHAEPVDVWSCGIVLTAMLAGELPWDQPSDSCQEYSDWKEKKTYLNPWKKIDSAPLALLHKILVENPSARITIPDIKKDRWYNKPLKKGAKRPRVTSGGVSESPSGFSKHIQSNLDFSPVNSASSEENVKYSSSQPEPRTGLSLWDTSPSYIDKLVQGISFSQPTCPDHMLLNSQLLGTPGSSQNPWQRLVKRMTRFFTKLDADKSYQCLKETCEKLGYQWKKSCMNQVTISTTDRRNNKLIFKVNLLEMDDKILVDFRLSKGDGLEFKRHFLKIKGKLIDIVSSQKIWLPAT

MDR1 = assay: in vitro; settings: dog, MDCK-MDR1
Description: Efflux ratio of apparent permeability across basal to apical side over apical to basal side in dog MDCK-MDR1 cells at 1 uM measured after 1 day by LC-MS/MS analysis

BCRP = assay: in vitro; settings: dog
Description: Efflux ratio of apparent permeability across basal to apical side over apical to basal side in dog MDCK-BCRP cells at 1 uM measured after 1 day by LC-MS/MS analysis

[2] = biological target: Serine/threonine-protein kinase Chk2 (Homo sapiens, UniProt O96017); assay: biochemical
Sequence of Serine/threonine-protein kinase Chk2 (O96017 whole entry): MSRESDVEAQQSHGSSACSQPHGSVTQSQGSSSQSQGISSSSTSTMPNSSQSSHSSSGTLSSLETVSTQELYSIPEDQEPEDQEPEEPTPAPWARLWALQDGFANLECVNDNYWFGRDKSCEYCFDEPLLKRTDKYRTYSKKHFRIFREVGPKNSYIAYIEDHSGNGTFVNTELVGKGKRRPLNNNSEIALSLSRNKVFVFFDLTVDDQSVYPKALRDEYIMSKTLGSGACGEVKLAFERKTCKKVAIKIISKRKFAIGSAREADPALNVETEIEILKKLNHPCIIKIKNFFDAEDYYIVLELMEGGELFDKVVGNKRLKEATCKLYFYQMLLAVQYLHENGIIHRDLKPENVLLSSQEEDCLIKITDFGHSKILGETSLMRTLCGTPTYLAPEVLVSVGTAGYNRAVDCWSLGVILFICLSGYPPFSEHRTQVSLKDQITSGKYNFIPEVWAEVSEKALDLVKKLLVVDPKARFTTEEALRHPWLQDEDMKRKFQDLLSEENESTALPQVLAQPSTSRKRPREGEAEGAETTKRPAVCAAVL
Description: Inhibition of N-terminal GST-fused human full length CHK2 (1 to 543 residues) expressed in baculovirus-infected Sf21 cells using STK1 S1 as substrate preincubated for 30 mins in presence of ATP followed by MgCl2 addition and measured after 60 mins by TR-FRET assay

[3] = biological target: T1, Serine/threonine-protein kinase Chk1; assay: Inhibition of human full length recombinant CHK1 using KKKVSRSGLYRSPSMPENLNRPR as substrate in presence of [gamma-33P]ATP incubated for 40 mins by radiometric assay
[4] = Apparent permeability of the compound in dog MDCK-MDR1 cells at 1 uM measured after 1 day by LC-MS/MS analysis; type: ADME, cell-based, Canis lupus familiaris
[5] = biological target: T1, Serine/threonine-protein kinase Chk1; assay: Inhibition of CHK1 in neocarzinostatin-stimulated human SW620 cells assessed as inhibition of CHK1 phosphorylation at Ser296 residue incubated for 2 hrs by sandwich ELISA; type: cell-based
[6] = biological target: Voltage-dependent L-type calcium channel subunit alpha-1C (Homo sapiens, UniProt Q13936); assay: Inhibition of human Cav1.2 transfected in CHO cells by automated electrophysiological analysis; type: cell-based
Sequence of Voltage-dependent L-type calcium channel subunit alpha-1C (Q13936 whole entry): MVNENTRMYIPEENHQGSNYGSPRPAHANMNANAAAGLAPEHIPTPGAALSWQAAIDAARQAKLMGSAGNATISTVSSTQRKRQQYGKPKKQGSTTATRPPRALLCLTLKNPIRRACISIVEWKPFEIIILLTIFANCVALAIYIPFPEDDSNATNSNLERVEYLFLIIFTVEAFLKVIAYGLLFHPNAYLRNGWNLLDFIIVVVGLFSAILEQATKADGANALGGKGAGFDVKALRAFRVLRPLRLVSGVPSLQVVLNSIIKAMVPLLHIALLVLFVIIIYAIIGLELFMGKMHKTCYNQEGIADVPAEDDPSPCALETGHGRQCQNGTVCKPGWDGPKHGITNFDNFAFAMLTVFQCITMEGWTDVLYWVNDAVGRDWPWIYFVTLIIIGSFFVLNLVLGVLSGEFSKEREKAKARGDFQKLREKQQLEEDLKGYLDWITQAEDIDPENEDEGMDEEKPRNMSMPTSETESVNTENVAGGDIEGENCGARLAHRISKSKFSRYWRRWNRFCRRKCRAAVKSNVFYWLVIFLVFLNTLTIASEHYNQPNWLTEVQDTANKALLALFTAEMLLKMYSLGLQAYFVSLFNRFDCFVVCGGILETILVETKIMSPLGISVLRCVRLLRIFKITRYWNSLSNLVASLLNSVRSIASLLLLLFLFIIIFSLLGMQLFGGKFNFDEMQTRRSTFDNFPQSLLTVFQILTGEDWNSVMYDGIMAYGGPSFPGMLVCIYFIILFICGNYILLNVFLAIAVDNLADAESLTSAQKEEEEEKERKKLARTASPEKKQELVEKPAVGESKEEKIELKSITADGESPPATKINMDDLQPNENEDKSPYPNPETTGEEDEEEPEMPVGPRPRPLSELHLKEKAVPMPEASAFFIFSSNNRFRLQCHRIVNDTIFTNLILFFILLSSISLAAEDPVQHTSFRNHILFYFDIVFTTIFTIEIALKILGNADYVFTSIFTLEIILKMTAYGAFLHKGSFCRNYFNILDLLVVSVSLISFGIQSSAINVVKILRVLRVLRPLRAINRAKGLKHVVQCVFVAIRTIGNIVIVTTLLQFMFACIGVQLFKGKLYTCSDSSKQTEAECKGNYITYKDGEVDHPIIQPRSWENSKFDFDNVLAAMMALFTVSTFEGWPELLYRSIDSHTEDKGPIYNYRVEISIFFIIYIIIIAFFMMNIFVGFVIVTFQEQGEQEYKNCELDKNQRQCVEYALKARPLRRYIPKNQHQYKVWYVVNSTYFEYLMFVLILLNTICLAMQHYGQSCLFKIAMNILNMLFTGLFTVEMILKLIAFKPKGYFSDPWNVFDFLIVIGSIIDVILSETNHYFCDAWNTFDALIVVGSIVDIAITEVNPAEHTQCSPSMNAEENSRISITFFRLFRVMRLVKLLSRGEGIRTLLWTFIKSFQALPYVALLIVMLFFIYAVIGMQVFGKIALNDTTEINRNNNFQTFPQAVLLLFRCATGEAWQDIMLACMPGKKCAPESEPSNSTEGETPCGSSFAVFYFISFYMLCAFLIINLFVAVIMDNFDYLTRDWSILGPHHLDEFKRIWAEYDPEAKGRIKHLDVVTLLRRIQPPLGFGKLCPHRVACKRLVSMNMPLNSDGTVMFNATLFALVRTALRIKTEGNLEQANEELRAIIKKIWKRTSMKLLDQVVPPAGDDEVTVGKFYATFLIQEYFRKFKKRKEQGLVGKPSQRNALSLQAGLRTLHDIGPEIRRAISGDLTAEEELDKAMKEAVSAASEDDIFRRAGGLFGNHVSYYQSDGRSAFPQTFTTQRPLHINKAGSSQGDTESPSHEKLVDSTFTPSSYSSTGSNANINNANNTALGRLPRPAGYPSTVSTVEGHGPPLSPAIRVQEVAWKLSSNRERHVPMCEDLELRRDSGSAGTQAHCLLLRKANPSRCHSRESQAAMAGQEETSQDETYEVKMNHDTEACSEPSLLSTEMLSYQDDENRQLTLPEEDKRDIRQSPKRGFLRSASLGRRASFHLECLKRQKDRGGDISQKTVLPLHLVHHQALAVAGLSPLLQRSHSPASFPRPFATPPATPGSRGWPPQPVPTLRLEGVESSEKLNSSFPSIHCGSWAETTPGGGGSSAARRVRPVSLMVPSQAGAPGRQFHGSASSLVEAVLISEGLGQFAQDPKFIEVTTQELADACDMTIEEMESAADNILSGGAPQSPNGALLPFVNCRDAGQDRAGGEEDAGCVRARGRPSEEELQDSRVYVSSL

[7] = biological target: Sodium channel protein type 5 subunit alpha (Homo sapiens, UniProt Q14524); assay: Inhibition of human Nav1.5 transfected in CHO cells by automated electrophysiological analysis; type: cell-based
Sequence of Sodium channel protein type 5 subunit alpha (Q14524 whole entry): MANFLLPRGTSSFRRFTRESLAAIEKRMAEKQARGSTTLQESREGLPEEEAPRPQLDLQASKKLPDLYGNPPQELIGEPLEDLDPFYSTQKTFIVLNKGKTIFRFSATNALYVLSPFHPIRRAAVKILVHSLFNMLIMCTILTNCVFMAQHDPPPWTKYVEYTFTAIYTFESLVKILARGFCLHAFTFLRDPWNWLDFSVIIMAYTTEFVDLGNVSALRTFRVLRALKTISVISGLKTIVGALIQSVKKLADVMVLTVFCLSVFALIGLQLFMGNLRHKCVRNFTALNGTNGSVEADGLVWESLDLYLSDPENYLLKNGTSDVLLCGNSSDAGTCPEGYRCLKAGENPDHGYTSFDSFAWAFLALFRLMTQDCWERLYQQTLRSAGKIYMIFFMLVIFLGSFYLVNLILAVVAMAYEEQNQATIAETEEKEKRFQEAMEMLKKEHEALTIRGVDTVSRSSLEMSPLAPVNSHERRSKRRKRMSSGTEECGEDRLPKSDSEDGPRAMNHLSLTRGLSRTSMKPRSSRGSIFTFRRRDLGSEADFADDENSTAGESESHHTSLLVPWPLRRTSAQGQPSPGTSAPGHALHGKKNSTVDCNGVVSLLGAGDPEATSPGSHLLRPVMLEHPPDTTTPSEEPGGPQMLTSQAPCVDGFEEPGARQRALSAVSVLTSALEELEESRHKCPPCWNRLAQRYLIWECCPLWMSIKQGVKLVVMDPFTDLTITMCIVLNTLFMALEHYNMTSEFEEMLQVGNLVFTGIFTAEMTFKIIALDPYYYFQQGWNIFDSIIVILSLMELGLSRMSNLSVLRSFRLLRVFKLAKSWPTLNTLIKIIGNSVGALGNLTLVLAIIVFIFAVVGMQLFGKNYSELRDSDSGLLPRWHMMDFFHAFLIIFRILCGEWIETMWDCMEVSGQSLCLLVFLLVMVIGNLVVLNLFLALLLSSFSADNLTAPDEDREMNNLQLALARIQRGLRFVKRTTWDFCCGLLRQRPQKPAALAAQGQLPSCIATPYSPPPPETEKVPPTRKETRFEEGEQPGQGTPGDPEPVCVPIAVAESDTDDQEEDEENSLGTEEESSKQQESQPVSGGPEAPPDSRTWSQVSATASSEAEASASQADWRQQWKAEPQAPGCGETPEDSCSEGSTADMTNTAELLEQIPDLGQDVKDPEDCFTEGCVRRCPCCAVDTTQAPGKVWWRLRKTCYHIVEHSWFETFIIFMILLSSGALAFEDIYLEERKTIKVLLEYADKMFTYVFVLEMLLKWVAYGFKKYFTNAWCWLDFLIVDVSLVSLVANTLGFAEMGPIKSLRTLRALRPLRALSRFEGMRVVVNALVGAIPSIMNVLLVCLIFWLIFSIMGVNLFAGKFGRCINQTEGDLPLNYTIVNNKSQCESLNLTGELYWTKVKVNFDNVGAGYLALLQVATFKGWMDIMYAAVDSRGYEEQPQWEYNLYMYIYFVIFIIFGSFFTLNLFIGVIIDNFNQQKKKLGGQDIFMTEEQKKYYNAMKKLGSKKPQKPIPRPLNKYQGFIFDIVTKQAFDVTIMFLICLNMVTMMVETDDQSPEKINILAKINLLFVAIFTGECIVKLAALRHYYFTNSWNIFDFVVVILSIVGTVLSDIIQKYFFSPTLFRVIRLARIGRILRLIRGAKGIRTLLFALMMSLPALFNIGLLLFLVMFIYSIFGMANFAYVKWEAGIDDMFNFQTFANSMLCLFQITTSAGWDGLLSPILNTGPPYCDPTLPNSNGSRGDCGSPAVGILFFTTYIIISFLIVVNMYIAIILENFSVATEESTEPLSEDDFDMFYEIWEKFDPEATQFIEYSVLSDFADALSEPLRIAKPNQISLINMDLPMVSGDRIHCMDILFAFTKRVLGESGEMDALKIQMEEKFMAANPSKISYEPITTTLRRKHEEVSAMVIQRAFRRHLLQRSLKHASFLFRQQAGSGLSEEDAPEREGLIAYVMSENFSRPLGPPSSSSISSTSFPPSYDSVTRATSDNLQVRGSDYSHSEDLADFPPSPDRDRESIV

[8] = Plasma concentration required to achieve 50% in vivo inhibition of CHK1 assessed as accumulation of CHK1 phosphorylation at Ser345 residue in tumors in po dosed GBM LN-229 CDX NOD/SCID mouse model; type: organism-based; settings: LN-229, Plasma
GBM [9] = assay: Antitumor activity against human patient-derived GBM cells implanted in orthotopic NOG mouse model assessed as lifespan of animal's survival at 30 mg/kg, po qd for 28 days (reference value: 25.5 days); type: functional; settings: time 28 day
GBM [10] = assay: Antitumor activity against human patient-derived GBM cells implanted in orthotopic NOG mouse model assessed as lifespan of animal's survival at 50 mg/kg, po qd with dosing schedule of 3 days on and 4 days off for 28 days (reference value: 25.5 days); type: functional; settings: time 28 day
GBM [11] = assay: Antitumor activity against human patient-derived GBM cells implanted in orthotopic NOG mouse model assessed as lifespan of animal's survival at 100 mg/kg, po qd with dosing schedule of 2 days on and 11 days off for 28 days (reference value: 25.5 days); type: functional; settings: time 28 day
[12] = biological target: Voltage-gated inwardly rectifying potassium channel KCNH2 (Homo sapiens, UniProt Q12809); assay: Inhibition of hERG expressed in HEK cells by electrophysiology; type: toxicity, cell-based
[13] = Kinetic aqueous solubility of the compound at 250 uM measured after 2 hrs by RP-UPLC-DAD analysis; type: physicochemical; settings: buffer, read-out: Kinetic_solubility
[14] = Intrinsic clearance in human liver microsomes measured per mg protein; type: ADME, Microsome; settings: read-out: CLH
[15] = Intrinsic clearance in rat liver microsomes measured per mg protein; type: ADME, Microsome; settings: read-out: CLH
in vivo = settings: Sprague-Dawley, rat, brain and plasma, iv, 1 mg/kg
Description: Unbound brain-to-plasma concentration ratio in Sprague-Dawley rat at 1 mg/kg, iv measured after 15 mins by rapid equilibrium dialysis method

in vitro = settings: dog, MDCK
Description: Apparent permeability of the compound across apical to basolateral side in dog MDCK cells at 1 uM measured after 1 day by LC-MS/MS analysis

GBM [16] = assay: Antitumor activity against human patient-derived GBM cells implanted in orthotopic NOG mouse model assessed as lifespan of animal's survival at 20 mg/kg, ip qd with dosing schedule of 5 days on and 2 days off for 28 days (reference value: 25.5 days); type: functional; settings: time 28 day

Structure (SMILES)	IC50 [1]	efflux ratio at 24 h, 1 µM (MDR1)	efflux ratio at 24 h, 1 µM (BCRP)	IC50 [2]	further results
CN(C)[C@]1(C)CCN(c2ccc(-n3cnc(Nc4cnc(C#N)cn4)c3)cc2)C1	2 nM	3.6	1.5	1.1 µM	–
C[C@@H]1CN(c2ccc(-n3cnc(Nc4cnc(C#N)cn4)c3)cc2)C[C@@H]1N(C)C	16 nM	–	–	> 10 µM	–
CN(C)[C@H]1CCN(c2ccc(-n3cnc(Nc4cnc(C#N)cn4)c3)cc2)C1	68 nM	–	–	–	–
N#Cc1cnc(Nc2cn(-c3ccccc3)cn2)cn1	–	0.6	1	–	IC50 [3]: 549 nM
CN(C)C1CN(c2ccc(-n3cnc(Nc4cnc(C#N)cn4)c3)cc2)C1	9 nM	–	–	> 10 µM	–
C[C@H]1CN(c2ccc(-n3cnc(Nc4cnc(C#N)cn4)c3)cc2)C[C@@H]1N(C)C	4 nM	–	–	2.72 µM	–
CN(C)C1CCN(c2ccc(-n3cnc(Nc4cnc(C#N)cn4)c3)cc2)CC1	11 nM	26	23	8.76 µM	–
CN(C)[C@@H]1CCN(c2ccc(-n3cnc(Nc4cnc(C#N)cn4)c3)cc2)C1	4 nM	–	–	–	IC50 [5]: 450 nM; IC50 [6]: > 30 µM; IC50 [7]: > 30 µM; IC50 [8]: 209 nM; Survival (GBM [9]): 34 days; Survival (GBM [10]): 39.5 days; Survival (GBM [11]): 50 days
CCN1CCN(c2ccc(-n3cnc(Nc4cnc(C#N)cn4)c3)cc2)CC1	21 nM	–	–	–	–
CN1CCN(c2ccc(-n3cnc(Nc4cnc(C#N)cn4)c3)cc2)CC1	15 nM	1.7	3.7	> 10 µM	IC50 [12]: > 30 µM; solubility kinetic at 2 h, 250 µM [13]: 59 µM (≈ 21.3 µg/mL); microsomal CLint [14]: < 14 µL/min/mg; microsomal CLint [15]: 47 µL/min/mg; Kp uu at […] (in vivo): 0.4; Papp A→B at 24 h, 1 µM (in vitro): 58 ×10⁻⁶ cm/s
CN1CC[C@@H]2CN(c3ccc(-n4cnc(Nc5cnc(C#N)cn5)c4)cc3)C[C@@H]21	17 nM	2.5	2.7	> 10 µM	–
Cn1nnc2c(C(N)=O)ncn2c1=O [TEMOZOLOMIDE]	–	–	–	–	Survival (GBM [16]): 43 days

Now from value to compound, other results behind:

IC50 [1]	efflux ratio at 24 h, 1 µM (MDR1)	efflux ratio at 24 h, 1 µM (BCRP)	IC50 [2]	Structure (SMILES)	further results
14 nM	34	> 50	–	CN1CC2(CCN(c3nc(Nc4cn(C(F)F)cn4)cnc3C#N)C2)C1	–
31 nM	–	–	–	CN1CC2(C1)CN(c1ccc(-n3cnc(Nc4cnc(C#N)cn4)c3)cc1)C2	–
5 nM	–	–	1.31 µM	CN(C)[C@H]1CN(c2ccc(-n3cnc(Nc4cnc(C#N)cn4)c3)cc2)C[C@@H]1F	–
464 nM	–	–	–	Cc1cc(N2CCN(C)CC2)ccc1-n1cnc(Nc2cnc(C#N)cn2)c1	–
–	0.9	–	–	N#Cc1cnc(Nc2cn(C(F)F)cn2)cn1	IC50 [3]: 3000 nM; Papp at 24 h, 1 µM [4]: 66 ×10⁻⁶ cm/s
14 nM	–	–	3.19 µM	CN(C)[C@H]1CN(c2ccc(-n3cnc(Nc4cnc(C#N)cn4)c3)cc2)C[C@H]1F	–
40 nM	< 1	1.4	> 10 µM	N#Cc1cnc(Nc2cn(-c3ccc(N4CCN(CCF)CC4)cc3)cn2)cn1	–
4 nM	–	–	2.07 µM	CCN(C)[C@@H]1CCN(c2ccc(-n3cnc(Nc4cnc(C#N)cn4)c3)cc2)C1	–
2 nM	> 50	> 50	–	CN1CC2(CCN(c3nc(Nc4cn(-c5ccccn5)cn4)cnc3C#N)C2)C1	–
12 nM	–	–	> 10 µM	CN1CC2(CCN(c3ccc(-n4cnc(Nc5cnc(C#N)cn5)c4)cc3)C2)C1	–
